Results: patent publication US5840684A, “Glycopeptide antibiotic derivatives” (Eli Lilly and Company, priority 1995, dated 1998)

How the values were obtained:
[1] = test system: Staphylococcus aureus SA1199B; assay type: cell-based
Description: (§1) The MIC's were determined using a standard broth micro-dilution assay.

[2] = test system: Entercoccus faecium 180-1; assay: broth micro-dilution MIC; assay type: cell-based
Description: as §1

[3] = test system: Entercoccus faecium 276; assay: broth micro-dilution MIC; assay type: cell-based
Description: as §1

[4] = test system: Staphylococcus aureus 446; assay: broth micro-dilution MIC; assay type: cell-based
Description: as §1

[5] = test system: Staphylococcus aureus 447; assay: broth micro-dilution MIC; assay type: cell-based
Description: as §1

[6] = test system: Staphylococcus aureus SA1199A; assay: broth micro-dilution MIC; assay type: cell-based
Description: as §1

[7] = test system: Streptococcus pyogenes C203; assay: broth micro-dilution MIC; assay type: cell-based
Description: as §1

[8] = test system: Entercoccus faecium 180; assay: broth micro-dilution MIC; assay type: cell-based; conditions: Entercoccus faecium 180
Description: (§2) The formula I compounds have in vitro and in vivo activity against Gram-positive pathogenic bacteria. The MIC's were determined using a standard broth micro-dilution assay.

[9] = test system: Entercoccus faecium 2041; assay: broth micro-dilution MIC; assay type: cell-based; conditions: Entercoccus faecium 2041
Description: as §2

[10] = test system: Enterococcus gallinarum 245; assay: broth micro-dilution MIC; assay type: cell-based; conditions: Enterococcus gallinarum 245
Description: as §2

[11] = test system: Haemophilus influenzae RD; assay: broth micro-dilution MIC; assay type: cell-based; conditions: Haemophilus influenzae RD
Description: as §2

[12] = test system: Staphylococcus haemolyticus 105; assay: broth micro-dilution MIC; assay type: cell-based
Description: as §2

[13] = test system: Staphylococcus haemolyticus 415; assay: broth micro-dilution MIC; assay type: cell-based
Description: as §2

[14] = test system: Streptococcus pneumoniae P1; assay: broth micro-dilution MIC; assay type: cell-based
Description: as §2

[15] = test system: vancomycin-resistant enterococci; assay: broth micro-dilution, mean geometric MIC; assay type: cell-based, Enterococcus faecium and Enterococcus faecalis; conditions: enterococci, 24-hour incubation
[16] = test system: vancomycin-susceptible enterococci; assay: broth micro-dilution, mean geometric MIC; assay type: cell-based, Enterococcus faecium and Enterococcus faecalis; conditions: enterococci, 24-hour incubation
[17] = test system: Staphylococcus aureus S13E; assay type: cell-based
Description: as §1

[18] = test system: Staphylococcus aureus 489; assay: broth micro-dilution MIC; assay type: cell-based
Description: as §1

[19] = test system: Staphylococcus aureus 491; assay: broth micro-dilution MIC; assay type: cell-based
Description: as §1

[20] = test system: Staphylococcus aureus SA1199; assay: broth micro-dilution MIC; assay type: cell-based
Description: as §1

[21] = test system: Staphylococcus aureus X400; assay: broth micro-dilution MIC; assay type: cell-based
Description: as §1

[22] = test system: Staphylococcus aureus X778; assay: broth micro-dilution MIC; assay type: cell-based
Description: as §1

[23] = test system: Staphylococcus epidermidis 270; assay: broth micro-dilution MIC; assay type: cell-based
Description: as §2

CNC(CC(C)C)C(=O)NC1C(=O)NC(CC(N)=O)C(=O)NC2C(=O)NC3C(=O)NC(C(=O)NC(C(=O)O)c4cc(O)cc(O)c4-c4cc3ccc4O)C(OC3CC(C)(N)C(O)C(C)O3)c3ccc(c(Cl)c3)Oc3cc2cc(c3OC2OC(CO)C(O)C(O)C2OC2CC(C)(NCc3ccc(-c4cccc(C)c4)cc3)C(O)C(C)O2)Oc2ccc(cc2Cl)C1O (stereo not drawn) [Compound 224]
≤ 0.06 µg/mL: MIC [2] | MIC [3] | MIC [6] | MIC [7] | MIC [8] | MIC [9] | MIC [14]
0.055 µg/mL: mean geometric MIC, Vancomycin Sensitive Strains [16]
1 µg/mL: MIC [12]
32 µg/mL: MIC [11]
0.63 µg/mL: mean geometric MIC, Vancomycin Resistant Strains [15]
0.5 µg/mL: MIC [1] | MIC [4] | MIC [5] | MIC [10] | MIC [13]

CNC(CC(C)C)C(=O)NC1C(=O)NC(CC(N)=O)C(=O)NC2C(=O)NC3C(=O)NC(C(=O)NC(C(=O)O)c4cc(O)cc(O)c4-c4cc3ccc4O)C(OC3CC(C)(N)C(O)C(C)O3)c3ccc(c(Cl)c3)Oc3cc2cc(c3OC2OC(CO)C(O)C(O)C2OC2CC(C)(NCC3CCC(C4CCCCC4)CC3)C(O)C(C)O2)Oc2ccc(cc2Cl)C1O (stereo not drawn) [Compound 164]
2 µg/mL: MIC [1] | MIC [4] | MIC [5] | MIC [18] | MIC [20] | MIC [10] | MIC [12] | MIC [13]
1.7 µg/mL: mean geometric MIC, Vancomycin Resistant Strains [15]
4 µg/mL: MIC [17]
0.5 µg/mL: MIC [6] | MIC [21] | MIC [8]
1 µg/mL: MIC [3] | MIC [19] | MIC [22] | MIC [9] | MIC [23]
≤ 0.06 µg/mL: MIC [2] | MIC [7] | MIC [14]
0.11 µg/mL: mean geometric MIC, Vancomycin Sensitive Strains [16]

CNC(CC(C)C)C(=O)NC1C(=O)NC(CC(N)=O)C(=O)NC2C(=O)NC3C(=O)NC(C(=O)NC(C(=O)O)c4cc(O)cc(O)c4-c4cc3ccc4O)C(OC3CC(C)(N)C(O)C(C)O3)c3ccc(c(Cl)c3)Oc3cc2cc(c3OC2OC(CO)C(O)C(O)C2OC2CC(C)(NCc3ccc(OS(=O)(=O)c4c(C)c(C)c(C)c(C)c4C)cc3)C(O)C(C)O2)Oc2ccc(cc2Cl)C1O (stereo not drawn) [Compound 173]
2 µg/mL: MIC [3] | MIC [18] | MIC [19] | MIC [20] | MIC [23] | MIC [12]
2.0 µg/mL: mean geometric MIC, Vancomycin Resistant Strains [15]
≤ 0.06 µg/mL: MIC [7] | MIC [14]
0.5 µg/mL: MIC [2] | MIC [6] | MIC [8] | MIC [9]
0.12 µg/mL: mean geometric MIC, Vancomycin Sensitive Strains [16]
4 µg/mL: MIC [17] | MIC [1] | MIC [4] | MIC [5] | MIC [21] | MIC [22] | MIC [10] | MIC [13]
